From PubChem BioAssay AID1845216 (Molecular Pharmacology Branch, DTP, NCI, 2023)
Values joined by “and” are separate entries in the source; they are usually repeats but may differ in a detail not shown here. Equal entries are not always repeated. Each block holds one molecule with its values, some of them ahead of it.

System: SW 982 tumor spheroid viability
Test: Anticancer human tumor SW 982 cell line growth inhibition;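 note: spheroids exposed to compound for 7 days before readout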
Details: spheroids with HUVEC and MSC; for viability, T/C: stronger effect = lower value
In short: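 Complex tumor spheroids combined malignant cells with endothelial cells and mesenchymal stem cells. DNA-damaging drugs and DNA repair inhibitors were tested alone and in combination, at half-log dilutions down from clinical Cmax (top 10 microM if Cmax unknown), 0.25% DMSO final.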

[1] = curve of first compound, second compound 0.003 µM

SMILES: CNCc1ccc(-c2cc(-c3nc(-c4ccc(S(=O)(=O)C(C)C)cc4)cnc3N)on2)cc1
- viability, T/C (compound 0.00949 µM): 94.4% and 97.7% and 104%
- viability, T/C (compound 0.03 µM): 94.6% and 94.9% and 100%
- viability, T/C (compound 0.0949 µM): 78.7% and 84% and 84.3%
- viability, T/C (compound 0.3 µM): 43.7% and 49.3% and 31.1%
- viability, T/C (compound 0.949 µM): 28% and 32.8% and 19.9%
- viability, T/C (compound 3 µM): 13.5% and 17.2% and 2.19%
- IC50 (curve of compound): 263 nM and 341 nM and 205 nM

SMILES: CNCc1ccc(-c2cc(-c3nc(-c4ccc(S(=O)(=O)C(C)C)cc4)cnc3N)on2)cc1 + COc1cc2c(cc1O)CCNC21CSC2c3c(OC(C)=O)c(C)c4c(c3C(COC1=O)N1C(O)C3Cc5cc(C)c(OC)c(O)c5C(C21)N3C)OCO4
- IC50 (curve of first compound, second compound 30 pM): 211 nM
- IC50 (curve of first compound, second compound 94.9 pM): 131 nM
- IC50 (curve of first compound, second compound 0.0003 µM): 107 nM
- IC50 (curve of first compound, second compound 0.000949 µM): < 9.49 nM
- IC50 [1]: < 9.49 nM
- viability, T/C (second compound 30 pM, first compound 0.00949 µM): 99.6%
- viability, T/C (second compound 30 pM, first compound 0.03 µM): 95.6%
- viability, T/C (second compound 30 pM, first compound 0.0949 µM): 78.3%
- viability, T/C (second compound 30 pM, first compound 0.3 µM): 33.4%
- viability, T/C (second compound 30 pM, first compound 0.949 µM): 23.8%
- viability, T/C (second compound 30 pM, first compound 3 µM): 2.48%
- viability, T/C (second compound 94.9 pM, first compound 0.00949 µM): 100%
- viability, T/C (second compound 94.9 pM, first compound 0.03 µM): 94%
- viability, T/C (second compound 94.9 pM, first compound 0.0949 µM): 55.9%
- viability, T/C (second compound 94.9 pM, first compound 0.3 µM): 26.4%
- viability, T/C (second compound 94.9 pM, first compound 0.949 µM): 18.9%
- viability, T/C (second compound 94.9 pM, first compound 3 µM): 2.12%
- viability, T/C (second compound 0.0003 µM, first compound 0.00949 µM): 84.7%
- viability, T/C (second compound 0.0003 µM, first compound 0.03 µM): 81%
- viability, T/C (second compound 0.0003 µM, first compound 0.0949 µM): 47.9%
- viability, T/C (second compound 0.0003 µM, first compound 0.3 µM): 28.2%
- viability, T/C (second compound 0.0003 µM, first compound 0.949 µM): 16.5%
- viability, T/C (second compound 0.0003 µM, first compound 3 µM): 2.22%
- viability, T/C (second compound 0.000949 µM, first compound 0.00949 µM): 49.3%
- viability, T/C (second compound 0.000949 µM, first compound 0.03 µM): 39.2%
- viability, T/C (second compound 0.000949 µM, first compound 0.0949 µM): 28.2%
- viability, T/C (second compound 0.000949 µM, first compound 0.3 µM): 15.9%
- viability, T/C (second compound 0.000949 µM, first compound 0.949 µM): 9.5%
- viability, T/C (second compound 0.000949 µM, first compound 3 µM): 0.69%
- viability, T/C (second compound 0.003 µM, first compound 0.00949 µM): 0.4%
- viability, T/C (second compound 0.003 µM, first compound 0.03 µM): 1.22%
- viability, T/C (second compound 0.003 µM, first compound 0.0949 µM): 0.92%
- viability, T/C (second compound 0.003 µM, first compound 0.3 µM): 0.5%
- viability, T/C (second compound 0.003 µM, first compound 0.949 µM): 1.07%
- viability, T/C (second compound 0.003 µM, first compound 3 µM): 0.31%

SMILES: Cc1cc(C)c(CNC(=O)c2cc(-c3ccc(CN4CCOCC4)cc3)cc3c2cnn3C2CCCC2)c(=O)[nH]1 + CC[C@@]1(O)C(=O)OCc2c1cc1n(c2=O)Cc2cc3c(CN(C)C)c(O)ccc3nc2-1
- IC50 [1]: > 10000 nM
- IC50 (curve of first compound, second compound 0.00949 µM): > 10000 nM
- IC50 (curve of first compound, second compound 0.03 µM): > 10000 nM
- IC50 (curve of first compound, second compound 0.0949 µM): > 10000 nM
- IC50 (curve of first compound, second compound 0.3 µM): 3030 nM
- viability, T/C (second compound 0.003 µM, first compound 0.0316 µM): 96.8%
- viability, T/C (second compound 0.003 µM, first compound 0.1 µM): 102%
- viability, T/C (second compound 0.003 µM, first compound 0.316 µM): 103%
- viability, T/C (second compound 0.003 µM, first compound 1 µM): 90.4%
- viability, T/C (second compound 0.003 µM, first compound 3.16 µM): 85.9%
- viability, T/C (second compound 0.003 µM, first compound 10 µM): 61.6%
- viability, T/C (second compound 0.00949 µM, first compound 0.0316 µM): 96.1%
- viability, T/C (second compound 0.00949 µM, first compound 0.1 µM): 86.6%
- viability, T/C (second compound 0.00949 µM, first compound 0.316 µM): 86.5%
- viability, T/C (second compound 0.00949 µM, first compound 1 µM): 85%
- viability, T/C (second compound 0.00949 µM, first compound 3.16 µM): 83%
- viability, T/C (second compound 0.00949 µM, first compound 10 µM): 63.3%
- viability, T/C (second compound 0.03 µM, first compound 0.0316 µM): 97%
- viability, T/C (second compound 0.03 µM, first compound 0.1 µM): 88.7%
- viability, T/C (second compound 0.03 µM, first compound 0.316 µM): 101%
- viability, T/C (second compound 0.03 µM, first compound 1 µM): 83.4%
- viability, T/C (second compound 0.03 µM, first compound 3.16 µM): 86.2%
- viability, T/C (second compound 0.03 µM, first compound 10 µM): 62.9%
- viability, T/C (second compound 0.0949 µM, first compound 0.0316 µM): 87.7%
- viability, T/C (second compound 0.0949 µM, first compound 0.1 µM): 87.4%
- viability, T/C (second compound 0.0949 µM, first compound 0.316 µM): 85.2%
- viability, T/C (second compound 0.0949 µM, first compound 1 µM): 89.6%
- viability, T/C (second compound 0.0949 µM, first compound 3.16 µM): 75.6%
- viability, T/C (second compound 0.0949 µM, first compound 10 µM): 61.7%
- viability, T/C (second compound 0.3 µM, first compound 0.0316 µM): 63.7%
- viability, T/C (second compound 0.3 µM, first compound 0.1 µM): 57.3%
- viability, T/C (second compound 0.3 µM, first compound 0.316 µM): 54.7%
- viability, T/C (second compound 0.3 µM, first compound 1 µM): 55%
- viability, T/C (second compound 0.3 µM, first compound 3.16 µM): 52.3%
- viability, T/C (second compound 0.3 µM, first compound 10 µM): 39%

- IC50 (compound alone, run of 12/02/2019): > 300 nM and 283 nM
- IC50 (compound alone, run of 12/12/2019): > 300 nM and 252 nM and 286 nM
SMILES: CC[C@@]1(O)C(=O)OCc2c1cc1n(c2=O)Cc2cc3c(CN(C)C)c(O)ccc3nc2-1
- viability, T/C (compound 0.003 µM): 93.7% [middle of 10 runs]
- viability, T/C (compound 0.00949 µM): 87.9% [middle of 10 runs]
- viability, T/C (compound 0.03 µM): 81.2% [middle of 10 runs]
- viability, T/C (compound 0.0949 µM): 70.1% [middle of 10 runs]
- viability, T/C (compound 0.3 µM): 51.5% [middle of 10 runs]
